Holding throughout (format): cell-based
One test relates to TNFα. Briefly: Cytokine profiling assay in human PBMCs, TNFα detection (MSD). The settings on record: PBMC; cryopreserved human PBMCs, 24 hours at 37° C., half-maximal effect on normalized percent activation; read-out: TNFa AC50. From the text: (§1) Cryopreserved human PBMCs isolated from healthy donors were purchased from StemCell Technologies (Vancouver, Canada). Cell culture medium used was RPMI with L-Glutamine (Mediatech, Manassas, Va.) supplemented with 10% fetal bovine serum (Hyclone, GE Healthcare, Logan, Utah) and Penicillin-Streptomycin (Mediatech). Human TNFα, IL12p40, and IFNα2a 384-well Assay capture plates, standards, buffers and processing reagents were obtained from MesoScale Discovery Technologies (MSD; Rockville, Md.).
(§2) Cryopreserved human PBMCs (1×10e8 cells/ml) were thawed at 37° C. and resuspended in 25 mL warm cell culture medium. The cells were pelleted at 200×g (Beckman Avanti J-E) for 5 min and resuspended in 20 mL of fresh culture media. Cells were counted using a Cellometer (Nexcelcom Bioscience), adjusted to 2×10e6 cells, and incubated for 2 hours in an incubator set at 37° C., 5% CO2 to recover from cryopreservation. Compounds were serially diluted in DMSO at half-log steps to generate a 10-point dose range. Using a Bravo pipette equipped with a 384 well head (Agilent), 0.4 μL of compound was transferred to each well of a 384 well black, clear bottom plate (Greiner Bio-One, Germany) containing 30 μL of cell culture medium. Recovered PBMCs were then dispensed into the assay plate at 50 μL per well (100 k cells/well) using the MicroFlow multichannel dispenser (Biotek). Final DMSO concentration was 0.5%. DMSO was used as the negative control. The plates were incubated for 24 hours at 37° C. PBMCs in the assay plate were pelleted by centrifugation (Beckman Avanti J-E) at 200×g for 5 min.
(§3) Using a Biomek FX 384 well pipetting station (Beckman), conditioned culture medium (CCM) from the assay plate was transferred to MSD capture plates customized for each cytokine. For IFNα and IL12-p40 detection, […], of CCM were added directly to each capture plate, respectively. For TNFα detection, CCM was diluted 1:9 in fresh culture medium, and […], of diluted CCM was used. Serially diluted calibration standards for each cytokine were used to generate standard curves and establish assay linearity. The plates were sealed and incubated overnight at 4° C. in a plate shaker (Titer Plate) set at 200 rpm. On the following day, antibodies specific for each cytokine were diluted 1:50 in MSD Diluent 100 antibody dilution buffer. Diluted antibodies were added to corresponding capture plates at 10 μL/well, and incubated at RT for 1-2 hrs in the shaker. The plates were washed with PBST buffer (3×, 60 μl/well) using a Biotek Multiflow plate washer. MSD Read Buffer diluted to 2× in deionized water and 35 μL/well was added via Biomek FX instrument. The plates were read immediately in a MSD6000 reader. Data were normalized to positive and negative controls in each assay plate. AC50 values represent compound concentrations at half-maximal effect based on normalized percent activation and calculated by non-linear regression using Pipeline Pilot software (Accelrys, San Diego, Calif.).

For a further test, the system named is IL12p40. Nature of the test: Cytokine profiling assay in human PBMCs, IL12p40 detection (MSD). The settings on record: PBMC; cryopreserved human PBMCs, 24 hours at 37° C., half-maximal effect on normalized percent activation.
Source text: as §1, §2, §3

The next test relates to IFNα. Nature of the test: Cytokine profiling assay in human PBMCs, IFNα detection (MSD). To be noted: PBMC; cryopreserved human PBMCs, 24 hours at 37° C., half-maximal effect on normalized percent activation; read-out: IFNa AC50.
Source text: as §1, §2, §3

Structures are written as SMILES.

Broadly, the AC50 is the concentration giving half of the maximal activity seen.

In the case of `CCCC[C@](C)(CNC(C)=O)Nc1nc(N)nc2nccnc12` [Example 14, (R)—N-(2-((2-aminopteridin-4-yl)amino)-2-methylhexyl)acetamide], the values for the AC50 with TNFα, in the test on IL12p40 and in the test on IFNα were 1910 nM, 1900 nM and above 50 µM, respectively.

`CCCC[C@](C)(CNC(C)=O)Nc1nc(N)nc2c1CCCC2` [Example 6, (R)—N-(2-((2-amino-5,6,7,8-tetrahydroquinazolin-4-yl)amino)-2-methylhexyl)acetamide]: the figures for the AC50 in the test with TNFα, in the test on IL12p40 and with IFNα were 10200 nM, 9580 nM and above 50 µM, respectively.

Consider `CCCC[C@](C)(CNC(C)=O)Nc1nc(N)nc2cc(F)c(F)cc12` [Example 3, (R)—N-(2-((2-amino-6,7-difluoroquinazolin-4-yl)amino)-2-methylhexyl)acetamide], for which the AC50 was 812 nM in the test with TNFα, 703 nM with IL12p40 and above 50 µM in the test with IFNα.

On to `CCCC[C@](C)(CNC(C)=O)Nc1nc(N)nc2ncccc12` [Example 5, (R)—N-(2-((2-aminopyrido[2,3-d]pyrimidin-4-yl)amino)-2-methylhexyl)acetamide], for which the values for the AC50 in the test with TNFα, with IL12p40 and in the test with IFNα were 543 nM, 364 nM and above 50 µM, respectively.

`CCCC[C@H](CNC(C)=O)Nc1nc(N)nc2ccccc12` [Example 10, (R)—N-(2-((2-aminoquinazolin-4-yl)amino)hexyl)acetamide]: the concentration at half-maximal activity (AC50) in the test with TNFα was 1670 nM; in the test on IL12p40 it was 1320 nM; in the test with IFNα it was above 50 µM.

On to `CCCC[C@](C)(CNC(C)=O)Nc1nc(N)nc2cc(F)ccc12` [Example 2, (R)—N-(2-((2-amino-7-fluoroquinazolin-4-yl)amino)-2-methylhexyl)acetamide], for which the AC50 in the test with TNFα is 40.9 nM; in the test with IL12p40, 8.83 nM; in the test on IFNα, above 50 µM.

Turning to `CCCC[C@](C)(CNC(C)=O)Nc1nc(N)nc2c1CN(C(C)=O)CC2` [Example 7, (R)—N-(2-((6-acetyl-2-amino-5,6,7,8-tetrahydropyrido[4,3-d]pyrimidin-4-yl)amino)-2-methylhexyl)acetamide], the AC50 with TNFα is 2500 nM; with IL12p40, 2320 nM; in the test with IFNα it was above 50 µM.

Turning to `CCCC[C@](C)(CNC(C)=O)Nc1nc(N)nc2c1CCN(C(C)=O)C2` [Example 8, (R)—N-(2-((7-acetyl-2-amino-5,6,7,8-tetrahydropyrido[3,4-d]pyrimidin-4-yl)amino)-2-methylhexyl)acetamide], the AC50 with TNFα is 4610 nM; in the test on IL12p40, 3630 nM; in the test with IFNα, above 50 µM.

In the case of `CCCC[C@H](CNC(C)=O)Nc1nc(N)nc2cc(F)c(F)cc12` [Example 12, (R)—N-(2-((2-amino-6,7-difluoroquinazolin-4-yl)amino)hexyl)acetamide], the results for the AC50 in the test on TNFα, in the test with IL12p40 and with IFNα were 10200 nM, 12000 nM and above 50 µM, respectively.

Consider `CCCC[C@](C)(CNC(C)=O)Nc1nc(N)nc2cnccc12` [Example 4, (R)—N-(2-((2-aminopyrido[3,4-d]pyrimidin-4-yl)amino)-2-methylhexyl)acetamide], for which the AC50 is 110 nM with TNFα, 132 nM with IL12p40 and above 50 µM in the test with IFNα.

For `CCCC[C@H](CNC(C)=O)Nc1nc(N)nc2ccsc12` [Example 13], the half-maximal activity concentration (AC50) in the test on TNFα is 9520 nM; in the test on IL12p40, 8290 nM; in the test on IFNα it was above 50 µM.

As for `CCCC[C@](C)(CNC(C)=O)Nc1nc(N)nc2ccccc12` [Example 1, (R)—N-(2-((2-aminoquinazolin-4-yl)amino)-2-methylhexyl)acetamide], the AC50 in the test with TNFα is 63 nM; in the test on IL12p40, 52.2 nM; with IFNα, above 50 µM.

With `CCCC[C@](C)(CNC(C)=O)Nc1nc(N)nc2ccsc12` [Example 9], the values for the concentration at half-maximal activity (AC50) in the test with TNFα, in the test on IL12p40 and with IFNα were 1100 nM, 855 nM and above 50 µM, respectively.

`CCCC[C@H](CNC(C)=O)Nc1nc(N)nc2cc(F)ccc12` [Example 11, (R)—N-(2-((2-amino-7-fluoroquinazolin-4-yl)amino)hexyl)acetamide]: the figures for the AC50 in the test on TNFα, with IL12p40 and with IFNα were 561 nM, 433 nM and above 50 µM, respectively.

The record behind these values is patent US11827609B2, “Toll like receptor modulator compounds” (GILEAD SCIENCES, INC., priority 2016, dated 2023).
